Assay results as given in patent publication US20130203823A1, “STABLE TOPICAL COMPOSITIONS FOR 1,2,4-THIADIAZOLE DERIVATIVES” (JANSSEN PHARMACEUTICAL, INC., priority 2009, published 2013).
Blank lines part the entries; values can stand above or below the compound they belong to.

Columns and labels:
[1] = Stability of the compound in the composition on storage, concentration by HPLC versus initial concentration; type: physicochemical
Excerpt: The compositions of the present invention have desired and improved properties, including the extended shelf-life or stability and the suitable commercial production. As used herein, the terms ‘stable composition’, ‘stable formulation’, ‘composition with extended shelf-life’ or variants thereof refer to the compound of Formula I, II, or III (and most preferably Compounds Ia, IIa, and IIIa) in the composition is stable. The stability or shelf-life of the compound may be determined by measuring the concentration and any degradation product of the compound of Formula I, II or III in the compositions using high performance liquid chromatography (HPLC). As commonly referred in the art, the compound is considered to be stable or being stabilized when the concentration of the compound retains at least about 90% to at least about 110%, preferably at least about 95% to at least about 105%, of the original concentration of the compound.
By way of example, the stability of the compound of Formula I, II, or III is determined using HPLC equipped with a temperature-controlled autosampler, a thermostatic column compartment, and an UV detector at about 326 nm (Agilent 1100, Waters alliance HPLC). A Zorbax C18 column is used for analyzing Compound Ia and a YMC-Pack Hydrosphere C18 column is used for analyzing Compound IIa. A binary linear gradient of mobile phases A and B is used. The mobile phase A may consist of about 0.2% trifluroacetic acid in water and the mobile phase B may consist of about 0.2% trifluroacetic acid in methanol. The gradient conditions are provided below.
The stability of Compound Ia was examined by measuring the concentration of Compound Ia using HPLC. The concentration of the compound in the composition stored at various temperatures for a period of time was compared to the initial concentration of the compound prior to storage.

[2] = In vitro skin permeation study, cadaver skin finite dose technique, Franz diffusion cell; type: in vitro ADME, human
Method: The cadaver skin finite dose technique was used for the studies. Split thickness human cadaver trunk skin was obtained from skin bank and stored in a water-impermeable plastic bag at about −70° C. Prior to each experiment, skin was thawed in water bath at about 37° C., then cut into sections large enough to fit on the Franz diffusion cell. The diffusion cells were mounted in a diffusion apparatus and filled with a receptor solution of ethanol/water/formic acid (25/75/0.3), which was stirred at about 600 RPM and maintained at about 32° C. The skin was mounted onto the diffusion cell, where the stratum corneum side faced the donor compartment and the dermal side faced the receiving compartment. About 10 μl per cm^2 of the composition was applied to the skin using a pipette. The dose was spread throughout the skin surface with a Teflon tip of the pipette. After about 4, 8, 12 and 24 hrs, the receptor solution was removed and replaced with fresh receptor solution. An aliquot was taken for analysis. The skin surface was washed with about 0.5 ml of a solvent mixture of methanol/water/formic acid (90/10/0.3). The solvent mixture was filtered and an aliquot was taken for analysis. Subsequently, the dermis and epidermis were separated and Compound IIa was extracted using the solvent mixture. The solvent mixture was filtered and an aliquot was taken for analysis. Samples were analyzed using HPLC.

[3] = aqueous gel formulation B, 0.30% w/w Compound IIa
[4] = aqueous gel formulation B, 0.60% w/w Compound IIa
[5] = aqueous gel formulation B, 1.2% w/w Compound IIa
[6] = cream composition E (as titled), 0.30% w/w Compound IIa
[7] = cream composition E (as titled), 0.60% w/w Compound IIa
[8] = cream composition E (as titled), 1.2% w/w Compound IIa
[9] = cream composition E (as titled), 2.4% w/w Compound IIa

% of Initial Concentration ([1]; aqueous gel composition B, 0.3% Compound IIa, 12 months, 5° C.): 99.47%
% of Initial Concentration ([1]; aqueous gel composition B, 0.3% Compound IIa, 12 months, 25° C.): 95.60%
% of Initial Concentration ([1]; aqueous gel composition B, 0.3% Compound IIa, 24 months, 5° C.): 97.92%
% of Initial Concentration ([1]; aqueous gel composition B, 0.3% Compound IIa, 24 months, 25° C.): 89.49%
% of Initial Concentration ([1]; aqueous gel composition B, 0.6% Compound IIa, 12 months, 25° C.): 93.90%
% of Initial Concentration ([1]; aqueous gel composition B, 0.6% Compound IIa, 24 months, 5° C.): 97.02%
% of Initial Concentration ([1]; aqueous gel composition B, 0.6% Compound IIa, 24 months, 25° C.): 92.69%
% of Initial Concentration ([1]; aqueous gel composition B, 1.2% Compound IIa, 12 months, 25° C.): 95.49%
% of Initial Concentration ([1]; aqueous gel composition B, 1.2% Compound IIa, 24 months, 5° C.): 97.56%
% of Initial Concentration ([1]; aqueous gel composition B, 1.2% Compound IIa, 24 months, 25° C.): 93.87%
% of Initial Concentration ([1]; aqueous gel composition B, 1.5% Compound IIa, 12 months, 5° C.): 100.68%
% of Initial Concentration ([1]; aqueous gel composition B, 1.5% Compound IIa, 12 months, 25° C.): 99.03%
% of Initial Concentration ([1]; aqueous gel composition B, 2.4% Compound IIa, 12 months, 25° C.): 101.30%
Stability in the composition (in words) ([1]; aqueous gel composition B, various amounts of Compound IIa, ambient condition): stable at ambient condition
Time for which the compound was stable ([1]; cream composition C (so in the source), ambient condition): at least 6 months
Time for which the compound was stable ([1]; cream composition C (so in the source), refrigerated condition): at least 18 months
% of Initial Concentration ([1]; cream composition D, 1.2% Compound IIa, 6 months, 5° C.): 100.0%
% of Initial Concentration ([1]; cream composition D, 1.2% Compound IIa, 6 months, 25° C.): 94.1%
% of Initial Concentration ([1]; cream composition D, 1.2% Compound IIa, 12 months, 5° C.): 98.3%
% of Initial Concentration ([1]; cream composition D, 1.2% Compound IIa, 18 months, 5° C.): 100.8%
% of Initial Concentration ([1]; emulsion composition E, 3 months, 5° C.): 101.40%
% of Initial Concentration ([1]; emulsion composition E, 3 months, 25° C.): 98.01%
% of Initial Concentration ([1]; emulsion composition E, 6 months, 5° C.): 100.11%
% of Initial Concentration ([1]; emulsion composition E, 6 months, 25° C.): 95.61%
% of Initial Concentration ([1]; emulsion composition E, 9 months, 5° C.): 100.20%
% of Initial Concentration ([1]; emulsion composition E, 13 months, 5° C.): 100.54%
Time for which the compound was stable ([1]; emulsion composition E, refrigerated condition): at least 13 months
Total amount permeated into Dermis [2, 3]: 0.004 µg
Total amount permeated into Epidermis [2, 3]: 0.361 µg
Total amount permeated into Receptor solution [2, 3]: 0.020 µg
Total amount permeated into Dermis [2, 4]: 0.007 µg
Total amount permeated into Epidermis [2, 4]: 0.164 µg
Total amount permeated into Receptor solution [2, 4]: 0.045 µg
Total amount permeated into Dermis [2, 5]: 0.007 µg
Total amount permeated into Epidermis [2, 5]: 0.537 µg
Total amount permeated into Receptor solution [2, 5]: 0.074 µg
Total penetration amount in epidermis, dermis and receptor solution versus concentration (in words) ([2]; as the concentration of Compound IIa increased in the formulations): increased
Total amount permeated into Dermis [2, 6]: 0.003 µg
Total amount permeated into Epidermis [2, 6]: 0.279 µg
Total amount permeated into Receptor solution [2, 6]: 0.015 µg
Total amount permeated into Dermis [2, 7]: 0.015 µg
Total amount permeated into Epidermis [2, 7]: 0.357 µg
Total amount permeated into Receptor solution [2, 7]: 0.025 µg
Total amount permeated into Dermis [2, 8]: 0.014 µg
Total amount permeated into Epidermis [2, 8]: 0.428 µg
Total amount permeated into Receptor solution [2, 8]: 0.025 µg
Total amount permeated into Dermis [2, 9]: 0.028 µg
Total amount permeated into Epidermis [2, 9]: 0.681 µg
Total amount permeated into Receptor solution [2, 9]: 0.070 µg
Compound: COc1ccccc1-c1nc(=Nc2ccccc2)sn1-c1ccccc1OC [Compound IIa, [2-(2-methoxyphenyl)-3-(2-methoxyphenyl)-2H-[1,2,4]-thiadiazol-5-ylidene]-phenylamine]
Skin penetration (in words) ([2]; aqueous gel formulation B): able to penetrate into epidermis, dermis and receptor solution
Skin penetration (in words) ([2]; cream composition D): able to penetrate into epidermis, dermis and receptor solution

Stability in the composition (in words) ([1]; aqueous gel composition A, 0.3% Compound Ia, ambient condition): stable at ambient condition
Time for which the compound was stable ([1]; emulsion composition F, refrigerated condition): at least 4 weeks
Compound: COc1ccccc1-c1nc(Nc2ccccc2)s[n+]1-c1ccccc1OC.[Br-] [Compound Ia, 2-(2-methoxyphenyl)-3-(2-methoxyphenyl)-5-phenylamino-[1,2,4]-thiadiazol-2-ium]
